Where a name gives a salt, the structure may show the parent alone. Read-outs that look alike come from different tables or passages of the source.
Key:
Serpulina hyodysenteriae = assay: MIC determination on agar, 10 S. hyodysenteriae strains; type: cell-based
S. hyodysenteriae = assay: Challenge trial: prevention of swine dysentery; type: in vivo, pigs; settings: for pigs with S. hyodysenteriae isolated: rectal swabs
Procedure: Two trials were effected where valnemulin fed at various inclusion levels is compared to tiamulin for the prevention of swine dysentery. The severity of disease is assessed by the evidence of clinical disease as determined by clinical scores for body condition, faeces consistency and composition. The excretion of Serpulina hyodysenteriae in faeces, lesions at post-mortem examination, growth rate and feed conversion ratio are also determined.
In the first trial valnemulin hydrochloride fed at 20, 30 and 40 ppm is compared with tiamulin hydrogen fumarate fed at 30 ppm and with unmedicated controls. Five groups of 9 (5 to 6 week old) conventionally reared pigs are used for each treatment group. The pigs are fed unmedicated food for 14 days, then challenged with the standard strain of S. hyodysenteriae (P18A). Challenge is by the oral route on two consecutive days. The medicated feed is introduced on the day after the second challenge. In the second trial a similar procedure is followed except that 4 groups of approximately 9 pigs were used. These are fed valnemulin hydrochloride at 5, 10 and 20 ppm and compared to unmedicated controls. In this trial the pigs used are from an outdoor reared herd and are challenged with a strain of S. hyodysenteriae isolated from an outdoor herd and previously shown to be capable of causing swine dysentery. In both trials the evidence of clinical disease is assessed daily and a clinical score assigned, rectal swabs are taken twice weekly for isolation of S. hyodysenteriae and all pigs are weighed at regular intervals. Food intake is also recorded. A post-mortem examination is carried out 21 days after challenge and the large intestine examined for the presence of lesions. Mucosal scrapings are also taken from 4 areas in the large intestine and cultured for S. hyodysenteriae.

Mycoplasma gallisepticum = assay: Challenge study, prevention of Mycoplasma gallisepticum infection; type: in vivo, male broiler chickens; settings: for prevention of clinical signs and mortality: tiamulin three doses
Procedure: Groups of male broiler chickens are infected with a virulent strain of Mycoplasma gallisepticum (MG) and each group medicated respectively with one of the following: valnemulin (concentrations of 0.00312, 0.00625, 0.0125 and 0.025%), tiamulin (0.00625, 0.0125 and 0.025%), and tylosin (0.05%). Infection is effected on day 2 by injection of 0.1 ml of Mycoplasma gallisepticum culture containing approximately 10^6 cfu of viable organisms into each lung (Jordan, F. T. W., The Veterinary Record 127 [1990] 502) and medication is commenced within an hour of infection and continued for three consecutive days. There is also an infected untreated group and an uninfected group.

Pasteurella multocida = assay: MIC against Pasteurella multocida isolates; type: cell-based; settings: for MIC: Pasteurella multocida, 10 isolates
Procedure: (§1) The minimal inhibitory concentration (MIC) of valnemulin hydrochloride against recent isolates of Pasteurelia multocida, Haemophilus pleuropneumoniae and Haemophilus parasuis originating from porcine respiratory material is determined and compared with tiamulin. […] Three of the Pasteurella isolates were toxigenic strains of Pasteurella multocida. For H. pleuropneumoniae and H. parasuis, on the day before testing a single loopful of each of the pure cultures is inoculated into 10 ml of Todd & Hewitt broth (Unipath CM190) containing 1% donor calf serum and 2 mg per ml of nicotinamide adenine dinucleotide (NAD). For P. multocida, […] a single loopful of each of the pure cultures is inoculated into 10 ml of nutrient broth No. 2 (Unipath CM67) containing 1% donor calf serum. Each of the prepared broth cultures are incubated for 18 hours at 37° C. in 10% CO2. […] For each test compound, standard control cultures of Oxford Staphylococcus aureus NCTC 6571 are also set up to validate the results of the MIC tests. In each case, broth cultures set up from the control organisms are identical to those of the organisms under test. Valnemulin is a hydrochloride, tiamulin is used as the hydrogen fumarate. […] Sensitised agar (Oxoid CM409) containing lysed horse blood (Oxoid SR50) is prepared according to the manufacturer's recommendations and adjusted to pH 7.4 it necessary. […] Four replicate plates are prepared from each dilution. […] After inoculation the growth of the organisms is examined initially by eye followed by microscopic examination on a stereo zoom microscope. The MIC value is taken as the lowest concentration of test compound at which no growth can be detected at the point of inoculation on all four plates by microscopic examination.

Haemophilus parasuis = assay: MIC against Haemophilus parasuis isolates; type: cell-based; settings: for MIC: Glaesserella parasuis, 3 isolates
Procedure: as §1

Mycoplasma hyosynoviae = assay: MIC assay, 7 field isolates of Mycoplasma hyosynoviae; type: cell-based; settings: for MIC: Mycoplasma, 7 field isolates
Procedure: Tissue samples are obtained from the lungs of pigs from various enzootic pneumonia of pigs (EPP)--affected herds. Samples are shipped on dry ice for culture. Four isolates from lung samples initially isolated for recovery of Mycoplasma hyopneumoniae were reisolated for Mycoplasma hyosynoviae after it had been noted from the lung samples submitted (re-stored at -70° C.), during culture for M. hyopneumoniae, that some samples yielded luxuriant growth of colonies having the typical morphology of Mycoplasma hyosynoviae. Three further isolates were recovered from other lung samples provided. All isolates were serologically identified by disc growth inhibition with specific rabbit antiserum raised against Mycoplasma hyosynoviae. A commerically available solid medium (Mycoplasma Experience Ltd.) is used to isolate M. hyosynoviae from lung tissue. A liquid medium (Mycoplasma Experience Ltd.) containing phenol red and arginine (pH 7.0) is used for the MIC assay.
Stock solutions of test compound are prepared at 1 mg/ml concentration in deionised water, sterilised by filtration through 0.2μ pore size membrane filters (Sartorius Minisart, N) and stored at -20° C. For use in the MIC tests the stock solutions are diluted in liquid medium to double the final concentrations required. MIC tests are carried out according to the method of Tanner and Wu, Avian Diseases 36 (1992) 714-717. Actively growing challenge cultures are prepared either from 1 ml aliquots of broth cultures stored at -70° C. or from cultures stored on agar at -70° C. The challenge cultures are diluted to give a target titre of 10^3 to 10^5 colour changing units/ml. 0.1 ml aliquots of challenge inocula are mixed with 0.1 ml aliquots of antibiotic dilution in microtitre wells. Each microtitre plate contains uninoculated media at pH 7.6 (end point control) and antibiotic-free inoculated challenge controls. All plates are sealed with adhesive film and incubated aerobically at 36° C. MICs are recorded when the colour change in the challenge control wells matches the pH of the end point control. The MIC is the lowest concentration showing no colour change.

[1] = tylosin 0.05%, tiamulin, valnemulin all but the lowest dose
[2] = valnemulin 0.0125 and 0.025%, tylosin 0.05%
[3] = first trial, valnemulin 20 and 40 ppm

C=C[C@]1(C)C[C@@H](OC(=O)CSCCN(CC)CC)[C@]2(C)[C@H](C)CC[C@]3(CCC(=O)[C@H]32)[C@@H](C)[C@@H]1O [tiamulin hydrogen fumarate]
number of strains with MIC 0.125 μg/ml (Serpulina hyodysenteriae; 10 S. hyodysenteriae strains): 6 | number of strains with MIC 0.250 μg/ml (Serpulina hyodysenteriae; 10 S. hyodysenteriae strains): 1 | number of strains with MIC 0.500 μg/ml (Serpulina hyodysenteriae; 10 S. hyodysenteriae strains): 1 | number of strains with MIC 1 μg/ml (Serpulina hyodysenteriae; 10 S. hyodysenteriae strains): 2 | pigs with S. hyodysenteriae isolated (S. hyodysenteriae; first trial, tiamulin 30 ppm): 2 | isolation of S. hyodysenteriae from mucosal scrapings (S. hyodysenteriae; first trial, tiamulin 30 ppm): isolated from mucosal scrapings taken from all of these affected animals | post-mortem lesions in pigs with clinical signs (S. hyodysenteriae; first trial, tiamulin 30 ppm): typical lesions of swine dysentery | post-mortem lesions in pigs without previous clinical signs (S. hyodysenteriae; first trial, tiamulin 30 ppm): one pig | animals with clinical disease (S. hyodysenteriae; first trial, tiamulin 30 ppm in feed): 2 out of 9 | mean clinical score per pig (S. hyodysenteriae; first trial, tiamulin 30 ppm, control 36): 6 | prevention of swine dysentery in words (S. hyodysenteriae; tiamulin 30 ppm in feed): did not prevent swine dysentery but reduced the incidence of disease | recovery of MG during life or at necropsy (Mycoplasma gallisepticum; tiamulin highest dose (0.025%), tylosin 0.05%): not recovered | weight gain (Mycoplasma gallisepticum; [1]): next but significantly less (p<0.05) | prevention of clinical signs and mortality (Mycoplasma gallisepticum; [2]): equally satisfactory | MIC (Pasteurella multocida; 18 h, read-out: MIC mean): 9.2 µg/mL | MIC (Pasteurella multocida; read-out: MIC range): 4 to 16 µg/mL | MIC (Haemophilus parasuis; 18 h, read-out: MIC mean): 0.7 µg/mL | MIC (Haemophilus parasuis; read-out: MIC range): 0.5 to 1 µg/mL | MIC (Mycoplasma hyosynoviae): 0.0025 to 0.025 µg/mL

C=C[C@]1(C)C[C@@H](OC(=O)CSC(C)(C)CNC(=O)[C@H](N)C(C)C)[C@]2(C)[C@H](C)CC[C@]3(CCC(=O)[C@H]32)[C@@H](C)[C@@H]1O [valnemulin hydrochloride, 14-O-[1-[(R)-2-amino-3-methylbutyrylamino]-2-methylpropan-2-ylthioacetyl]mutilin]
number of strains with MIC 0.0156 μg/ml (Serpulina hyodysenteriae; 10 S. hyodysenteriae strains): 2 | number of strains with MIC 0.0312 μg/ml (Serpulina hyodysenteriae; 10 S. hyodysenteriae strains): 4 | number of strains with MIC 1 μg/ml (Serpulina hyodysenteriae; 10 S. hyodysenteriae strains): 1 | MIC times less than those of tiamulin (Serpulina hyodysenteriae; S. hyodysenteriae strains): 2-32 times | susceptibility of S. hyodysenteriae strains (Serpulina hyodysenteriae; all strains): highly susceptible | pigs with S. hyodysenteriae isolated (S. hyodysenteriae; first trial, valnemulin 30 ppm): 2 pigs | isolation of S. hyodysenteriae (S. hyodysenteriae; [3]): not isolated | post-mortem lesions (S. hyodysenteriae; [3]): Lesions were not seen | evidence of disease (S. hyodysenteriae; first trial, valnemulin 20 and 40 ppm in feed): Evidence of disease was not seen | isolation of S. hyodysenteriae from mucosal scrapings (S. hyodysenteriae; first trial, valnemulin 30 ppm): not isolated from mucosal scrapings | pigs with post-mortem lesions (S. hyodysenteriae; first trial, valnemulin 30 ppm): One pig | pigs with clinical disease (S. hyodysenteriae; first trial, valnemulin 30 ppm in feed): 1 pig | inclusion rate down to which effective in preventing swine dysentery (S. hyodysenteriae; in feed): 10 ppm | animals affected (S. hyodysenteriae; second trial, 5 ppm): 5 out of 10 | p of mean clinical score vs controls (S. hyodysenteriae; second trial, 5 ppm): < 0.005 | p of numbers affected vs controls (S. hyodysenteriae; second trial, 5 ppm): < 0.05 | p, heavier than controls at end of trial (S. hyodysenteriae; second trial, 5 ppm): 0.05 | other animals with lesions and S. hyodysenteriae in mucosal scrapings (S. hyodysenteriae; second trial, 5 ppm, no clinical signs): 2 animals | pigs with post-mortem lesions (S. hyodysenteriae; second trial, 5 ppm, of 5 pigs with previous signs, S. hyodysenteriae not isolated): 2 | pigs with S. hyodysenteriae isolated from rectal swabs (S. hyodysenteriae; second trial, 5 ppm, of the 5 animals affected): 2 | mean clinical score (S. hyodysenteriae; second trial, 5 ppm, control 77): 11 | first clinical signs after challenge (S. hyodysenteriae; second trial, 5 ppm, control 5 days): 8 days | p, heavier than controls at end of trial (S. hyodysenteriae; second trial, 10 and 20 ppm): < 0.05 | clinical signs of disease (S. hyodysenteriae; second trial, 10 or 20 ppm): not seen | isolation of S. hyodysenteriae (S. hyodysenteriae; second trial, 10 or 20 ppm): not isolated | post-mortem lesions (S. hyodysenteriae; second trial, 10 or 20 ppm): Lesions were not seen | prevention of swine dysentery in words (S. hyodysenteriae; valnemulin 5 ppm in feed): did not completely prevent clinical disease or the shedding of spirochaetes | prevention compared with tiamulin (S. hyodysenteriae; valnemulin 10 ppm in feed): clearly more effective than Tiamulin at 30 ppm | weight gain (Mycoplasma gallisepticum; [1]): next but significantly less (p<0.05) | prevention of MG infection vs reference compounds (Mycoplasma gallisepticum; valnemulin 0.0125 and 0.025%): as effective as the reference compounds | prevention of clinical signs and mortality (Mycoplasma gallisepticum; [2]): equally satisfactory | lesions (frequency and severity) (Mycoplasma gallisepticum; valnemulin 0.0125 and 0.025%, tiamulin, tylosin 0.05%): then the two higher doses of valnemulin | effect on lesions (Mycoplasma gallisepticum; valnemulin 2 lower doses (0.00312, 0.00625%)): less effective | birds with MG isolated (Mycoplasma gallisepticum; valnemulin highest dose (0.025%)): only one bird | weight gain (Mycoplasma gallisepticum; valnemulin lowest dose): lowest weight gains | mean increase in activity compared with tiamulin (Pasteurella multocida; P. multocida): two and a half fold | MIC (Pasteurella multocida; 18 h, read-out: MIC mean): 3.8 µg/mL | MIC (Pasteurella multocida; read-out: MIC range): 2 to 8 µg/mL | MIC (Haemophilus parasuis; 18 h, read-out: MIC mean): 0.25 µg/mL | MIC (Haemophilus parasuis; read-out: MIC range): 0.25 µg/mL | mean increase in activity compared with tiamulin (Haemophilus parasuis; H. parasuis): three fold | MIC (Mycoplasma hyosynoviae): 0.0001 to 0.0005 µg/mL | sensitivity of isolates in words (Mycoplasma hyosynoviae; seven field isolates): much higher than for the other two compounds
